The source of these data is patent US9795650B2, “Romidepsin formulations and uses thereof” (Celgene Corporation, priority 2013, dated 2017).

The nature of the data set: Solubility of romidepsin in solvents. Format: physicochemical. From the text: In one embodiment, the romidepsin liquid concentrate for dilution is formulated in a solvent system. […] Solubility of romidepsin was studied in the following solvents and solvent mixtures: glycerin:EtOH (1:1); PEG 300; PEG 400; Tween 80:EtOH (1:1); dimethylacetamide (DMA); SolutolHS15:EtOH (1:1); NMP; Water; EtOH:PEG 400 (1:1); EtOH;water (4:6); EtOH; EtOH:PG (80:20); EtOH:PG (60:40); EtOH:PG (40:60); EtOH:PG (20:80); PG; EtOH:PG (40:60)+10% water; EtOH:PG (40:60)+butylated hydroxyanizole (BHA)/butylated hydroxytoluebe (BHT); and EtOH:PG (40:60)+ascorbic acid.

SMILES strings stand for the structures.

With `C/C=C1\NC(=O)[C@H]2CSSCC/C=C/[C@H](CC(=O)N[C@H](C(C)C)C(=O)N2)OC(=O)[C@H](C(C)C)NC1=O` [Romidepsin], the Solubility in water entry is “practically insoluble in water”.
